# Data taken from patent publication US8497294B2, “Compositions comprising (S)-2-amino-1-(4-chlorophenyl)-1-[4-(1H-pyrazol-4-yl)-phenyl]-ethanol as modulator of protein kinases” (Astex Therapeutics Limited, priority 2007, dated 2013).
# pIC50: −log10 of the molar value.
# Experiments:
# PKB = PKB (Homo sapiens, UniProt P31751); assay: Activity against the kinase PKB (method not given); conditions: compound and its acid addition salts
# [1] = target: T1, protein kinase B (PKB), fusion protein PKB-PIF (Homo sapiens, UniProt P31751); assay: PKB kinase inhibitory activity, in vitro radiometric assay; format: biochemical; conditions: (radiometric) binding assay, relative to the other enantiomer
# T1 construct: made in house
# T1 sequence (P31751 with tags, fused parts or gaps limits assumed): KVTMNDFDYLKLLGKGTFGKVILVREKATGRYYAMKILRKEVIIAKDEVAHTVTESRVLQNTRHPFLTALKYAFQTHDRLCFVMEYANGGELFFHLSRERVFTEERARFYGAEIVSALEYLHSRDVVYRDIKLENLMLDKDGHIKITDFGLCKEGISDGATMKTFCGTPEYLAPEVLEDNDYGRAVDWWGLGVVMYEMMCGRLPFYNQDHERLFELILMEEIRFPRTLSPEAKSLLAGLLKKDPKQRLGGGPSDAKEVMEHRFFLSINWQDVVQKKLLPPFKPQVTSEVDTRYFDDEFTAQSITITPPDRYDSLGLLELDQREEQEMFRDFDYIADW
# Excerpt: The inhibition of protein kinase B (PKB) activity by compounds can be determined essentially as described by Andjelkovic et al. (Mol. Cell. Biol. 19, 5061-5072 (1999)) but using a fusion protein described as PKB-PIF and described in full by Yang et al (Nature Structural Biology 9, 940-944 (2002)). The protein is purified and activated with PDK1 as described by Yang et al. The peptide AKTide-2T (H-A-R—K—R-E-R-T-Y—S—F-G-H—H-A-OH) obtained from Calbiochem (#123900) is used as a substrate. A final concentration of 0.6 nM enzyme is used in a buffer that includes 20 mM MOPS pH 7.2, 30 μM ATP/γ^33P-ATP and 25 μM substrate. Compounds are added in DMSO solution to a final DMSO concentration of 2.5%. The reaction is allowed to proceed for 20 minutes before addition of excess orthophosphoric acid to quench activity. The reaction mixture is transferred to a phosphocellulose filter plate where the peptide binds and the unused ATP is washed away. After washing, scintillant is added and the incorporated activity measured by scintillation counting.
# [2] = tested on: phosphorylation of GSK3β on serine 9 in U87MG cells; assay: Cell based phospho-Ser9 GSK3β ELISA (mechanistic cellular assay); conditions: for activity in mechanistic cellular ELISA assay: result in words
# Method: The effect on inhibiting PKB in U87MG cells is determined by the ability of compounds to inhibit phosphorylation of the direct downstream substrate GSK3β on serine 9. Cells are plated in 96 well plates and allowed to recover overnight prior to addition of the inhibitor compound for 1 hour. After 1 hour, cell are fixed and blocked with 3% paraformaldehyde, 0.25% gluteraldehyde, 0.25% Triton X100 and 5% Marvel in TBS-T. Following this cells are incubated with primary antibody directed to the phosphorylated form of GSK3β (Cell Signaling) overnight at 4° C. After washing, cells are incubated with secondary antibody using the DELFIA reagents (Eu—N1 anti-rabbit IgG antibody) for 1 h, and following enhancement plates are read on a time-resolved fluorescence reader at excitation 340 nm and emission 640 nm. All cells are obtained from ECACC (European Collection of Cell Cultures).
# 1. U87MG cells plated at 12,500 cells/well in 160 ul media/well in a 96 well plate
# 2. Incubate for 24 hours at 37° C.
# 3. Treat cells with the inhibitor and DMSO control
# 4. Incubate for 1 hour at 37° C.
# 5. Media flicked from the plate and blot on paper
# 6. 100 μl fixing solution added to each well (3% paraformaldehyde, 0.25% gluteraldehyde, 0.25% Triton X100)
# 7. Incubate for 30 minutes at 37° C.
# 8. Wash 1× with water/0.1% Tween20
# 9. Block with 100 μl 5% milk/TBS-T
# 10. Incubate for 30 minutes at 37° C.
# 11. 100 μl primary antibody diluted in 5% milk/TBS-T added to each well (CST #9336 Phospho-Ser9 GSK3β antibody used at 1:250)
# • include a column control with no 1 ab—just 5% milk/TBS-T • can also include a column of Zymed rabbit IgG (02-6102-5 mg/mL) control diluted in 5% milk/TBS-T to the same concentration as the phospho-Ser9 GSK3β if required 12. Incubate overnight at 4° C. 13. Wash 3× with water/0.1% Tween20 14. 100 μl secondary antibody diluted in Delfia Assay Buffer added to each well (Delfia Eu—N1 anti-rabbit IgG antibody used at 0.30 μg/ml final conc) 15. Incubate for 1 hour at 37° C. 16. Wash 3× with water/0.1% Tween20 17. 100 μl Delfia Enhancement Solution added to each well 18. Shake on plate shaker for 15 minutes 19. Read on Delfia programme (excitation 340 nm−emission […])=Europium counts 20. Wash 1× with water/0.1% Tween 20 21. 200 μl BCA solution added per well (BCA with 1:50 Copper II Sulfate) 22. Incubate for 30 minutes at 37° C. 23. Read at absorbance 562 nm=protein concentration
# ROCK = conditions: cited from earlier work
# PKA catalytic domain = target: T2, PKA catalytic domain (Homo sapiens, UniProt P17612); assay: PKA kinase inhibitory activity, radiometric assay; format: biochemical
# T2 construct: using the PKA catalytic domain from Upstate Biotechnology (#14-440); purchased Upstate Biotechnology 14-440
# Method: A final concentration of 1 nM enzyme is used in a buffer that includes 20 mM MOPS pH 7.2, 40 μM ATP/γ^33P-ATP and […] substrate. Compounds are added in dimethylsulphoxide (DMSO) solution to a final DMSO concentration of 2.5%. The reaction is allowed to proceed for 20 minutes before addition of excess orthophosphoric acid to quench activity. Unincorporated γ^33P-ATP is then separated from phosphorylated proteins on a Millipore MAPH filter plate. The plates are washed, scintillant is added and the plates are then subjected to counting on a Packard Topcount.
# CYP450 1A2 = target: T3, CYP450 1A2 (Homo sapiens, UniProt P05177); assay: Potency against cytochrome P450 1A2 (Vivid screening kit); format: in vitro ADME; conditions: tested at a concentration of 10 μM
# T3 construct: purchased Invitrogen (Paisley, UK), Pan Vera Vivid screening kits; host or cells: baculosomes
# T3 sequence (P05177 1-516): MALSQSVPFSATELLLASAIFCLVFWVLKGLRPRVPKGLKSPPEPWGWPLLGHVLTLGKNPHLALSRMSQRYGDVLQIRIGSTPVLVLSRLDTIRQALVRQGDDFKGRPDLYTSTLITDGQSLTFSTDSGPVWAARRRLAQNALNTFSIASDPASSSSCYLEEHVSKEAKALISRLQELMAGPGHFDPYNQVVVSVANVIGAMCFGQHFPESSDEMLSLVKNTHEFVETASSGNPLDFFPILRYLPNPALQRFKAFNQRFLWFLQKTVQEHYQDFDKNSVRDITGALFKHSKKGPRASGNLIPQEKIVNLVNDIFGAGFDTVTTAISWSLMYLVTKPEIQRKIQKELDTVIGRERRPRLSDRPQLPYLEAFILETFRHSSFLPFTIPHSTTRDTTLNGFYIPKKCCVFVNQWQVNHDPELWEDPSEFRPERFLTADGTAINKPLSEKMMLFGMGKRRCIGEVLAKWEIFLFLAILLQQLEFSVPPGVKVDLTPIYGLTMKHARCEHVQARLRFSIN
# Method: (§1) The potency of the compound of Example 1 against cytochrome P450 (CYP450) enzymes 1A2, 2C9, 2C19, 3A4 and 2D6 was determined using the Pan Vera Vivid C450 screening kits available from Invitrogen (Paisley, UK). The CYP450s were supplied in the form of baculosomes containing the CYP450 and NADPH reductase and the substrates used were the fluorescent Vivid substrates. The final reaction mixtures were as follows:
# 100 mM potassium phosphate, pH 8, 1% acetonitrile, 2 μM 1A2 Blue vivid substrate, 100 μM NADP^+, 4 nM CYP450 1A2, 2.66 mM glucose-6-phosphate, 0.32 U/ml glucose-6-phosphate dehydrogenase.
# (§2) Fluorescence was monitored for 20 minutes at 30 second intervals on a Fluoroskan fluorescence plate reader. The excitation and emission wavelengths were 390 nm and 460 nm for 1A2, 2C19 and 3A4, 390 nm and 485 nm for 2D6 and 485 nm and 530 nm for 2C9. Initial rates were determined from progress curves.
# (§3) The test compound was made up in acetonitrile and tested against the CYP450s at a concentration of 10 μM.
# CYP450 2C9 = target: T4, CYP450 2C9 (Homo sapiens, UniProt P11712); assay: Potency against cytochrome P450 2C9 (Vivid screening kit); format: in vitro ADME; conditions: tested at a concentration of 10 μM
# T4 construct: purchased Invitrogen (Paisley, UK), Pan Vera Vivid screening kits; host or cells: baculosomes
# T4 sequence (P11712 whole entry): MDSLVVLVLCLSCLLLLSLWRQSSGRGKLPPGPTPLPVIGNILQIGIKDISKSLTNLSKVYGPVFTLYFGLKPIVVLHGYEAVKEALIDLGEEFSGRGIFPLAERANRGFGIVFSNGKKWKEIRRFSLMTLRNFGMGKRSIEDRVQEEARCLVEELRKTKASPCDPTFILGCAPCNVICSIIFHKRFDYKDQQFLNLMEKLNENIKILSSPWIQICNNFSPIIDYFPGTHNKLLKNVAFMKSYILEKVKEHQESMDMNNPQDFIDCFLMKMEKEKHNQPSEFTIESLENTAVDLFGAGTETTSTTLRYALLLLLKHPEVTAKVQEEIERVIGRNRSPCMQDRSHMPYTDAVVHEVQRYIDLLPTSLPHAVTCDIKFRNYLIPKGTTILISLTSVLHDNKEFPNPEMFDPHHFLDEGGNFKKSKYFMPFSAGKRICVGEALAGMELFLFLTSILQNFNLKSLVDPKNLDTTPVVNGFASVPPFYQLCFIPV
# Method: as §1
# 50 mM potassium phosphate, pH 8, 1% acetonitrile, 2 μM Green vivid substrate, 100 μM NADP^+, 8 nM CYP450 2C9, 2.66 mM glucose-6-phosphate, 0.32 U/ml glucose-6-phosphate dehydrogenase.
# as §2, §3
# CYP450 2C19 = target: T5, CYP450 2C19 (Homo sapiens, UniProt P33261); assay: Potency against cytochrome P450 2C19 (Vivid screening kit); format: in vitro ADME; conditions: tested at a concentration of 10 μM
# T5 construct: purchased Invitrogen (Paisley, UK), Pan Vera Vivid screening kits; host or cells: baculosomes
# T5 sequence (P33261 whole entry): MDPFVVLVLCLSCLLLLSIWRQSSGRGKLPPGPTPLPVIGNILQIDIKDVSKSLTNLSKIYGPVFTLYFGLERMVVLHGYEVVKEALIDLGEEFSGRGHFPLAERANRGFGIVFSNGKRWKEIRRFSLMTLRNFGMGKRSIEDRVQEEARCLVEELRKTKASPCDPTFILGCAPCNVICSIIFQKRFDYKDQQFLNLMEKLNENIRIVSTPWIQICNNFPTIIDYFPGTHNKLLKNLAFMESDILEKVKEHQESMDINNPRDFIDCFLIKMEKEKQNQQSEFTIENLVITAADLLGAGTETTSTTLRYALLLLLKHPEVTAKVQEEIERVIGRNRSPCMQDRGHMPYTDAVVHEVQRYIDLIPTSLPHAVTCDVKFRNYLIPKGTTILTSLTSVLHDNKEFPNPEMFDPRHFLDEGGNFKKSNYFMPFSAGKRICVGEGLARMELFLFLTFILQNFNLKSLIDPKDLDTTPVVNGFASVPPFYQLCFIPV
# Method: as §1
# 50 mM potassium phosphate, pH 8, 1% acetonitrile, 8 μM Blue vivid substrate, 100 μM NADP^+, 4 nM CYP450 2C19, 2.66 mM glucose-6-phosphate, 0.32 U/ml glucose-6-phosphate dehydrogenase.
# as §2, §3
# CYP450 2D6 = target: T6, CYP450 2D6 (Homo sapiens, UniProt P10635); assay: Potency against cytochrome P450 2D6 (Vivid screening kit); format: in vitro ADME; conditions: tested at a concentration of 10 μM
# T6 construct: purchased Invitrogen (Paisley, UK), Pan Vera Vivid screening kits; host or cells: baculosomes
# T6 sequence (P10635 whole entry): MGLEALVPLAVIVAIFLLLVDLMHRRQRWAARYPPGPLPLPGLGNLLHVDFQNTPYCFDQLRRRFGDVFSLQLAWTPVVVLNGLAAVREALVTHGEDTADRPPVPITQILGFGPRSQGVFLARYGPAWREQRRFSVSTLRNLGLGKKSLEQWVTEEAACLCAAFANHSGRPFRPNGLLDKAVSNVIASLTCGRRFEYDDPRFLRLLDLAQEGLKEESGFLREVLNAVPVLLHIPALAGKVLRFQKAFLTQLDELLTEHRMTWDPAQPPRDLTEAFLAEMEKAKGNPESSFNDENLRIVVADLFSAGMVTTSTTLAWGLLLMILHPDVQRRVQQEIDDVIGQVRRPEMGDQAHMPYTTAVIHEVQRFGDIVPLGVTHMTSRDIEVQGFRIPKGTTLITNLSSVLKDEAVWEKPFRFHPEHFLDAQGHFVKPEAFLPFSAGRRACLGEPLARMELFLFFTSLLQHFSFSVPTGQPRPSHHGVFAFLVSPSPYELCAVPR
# Method: as §1
# 100 mM potassium phosphate, pH 8, 1% acetonitrile, 5 μM 2D6 Blue vivid substrate, 100 μM NADP^+, 16 nM CYP450 2D6, 2.66 mM glucose-6-phosphate, 0.32 U/ml glucose-6-phosphate dehydrogenase.
# as §2, §3
# ROCK-II (h) = ROCK-II (h) (Homo sapiens, UniProt O75116); assay: ROCK-II (h) assay; format: biochemical; conditions: below the limit of the assay
# ROCK-II (h), sequence (O75116 whole entry): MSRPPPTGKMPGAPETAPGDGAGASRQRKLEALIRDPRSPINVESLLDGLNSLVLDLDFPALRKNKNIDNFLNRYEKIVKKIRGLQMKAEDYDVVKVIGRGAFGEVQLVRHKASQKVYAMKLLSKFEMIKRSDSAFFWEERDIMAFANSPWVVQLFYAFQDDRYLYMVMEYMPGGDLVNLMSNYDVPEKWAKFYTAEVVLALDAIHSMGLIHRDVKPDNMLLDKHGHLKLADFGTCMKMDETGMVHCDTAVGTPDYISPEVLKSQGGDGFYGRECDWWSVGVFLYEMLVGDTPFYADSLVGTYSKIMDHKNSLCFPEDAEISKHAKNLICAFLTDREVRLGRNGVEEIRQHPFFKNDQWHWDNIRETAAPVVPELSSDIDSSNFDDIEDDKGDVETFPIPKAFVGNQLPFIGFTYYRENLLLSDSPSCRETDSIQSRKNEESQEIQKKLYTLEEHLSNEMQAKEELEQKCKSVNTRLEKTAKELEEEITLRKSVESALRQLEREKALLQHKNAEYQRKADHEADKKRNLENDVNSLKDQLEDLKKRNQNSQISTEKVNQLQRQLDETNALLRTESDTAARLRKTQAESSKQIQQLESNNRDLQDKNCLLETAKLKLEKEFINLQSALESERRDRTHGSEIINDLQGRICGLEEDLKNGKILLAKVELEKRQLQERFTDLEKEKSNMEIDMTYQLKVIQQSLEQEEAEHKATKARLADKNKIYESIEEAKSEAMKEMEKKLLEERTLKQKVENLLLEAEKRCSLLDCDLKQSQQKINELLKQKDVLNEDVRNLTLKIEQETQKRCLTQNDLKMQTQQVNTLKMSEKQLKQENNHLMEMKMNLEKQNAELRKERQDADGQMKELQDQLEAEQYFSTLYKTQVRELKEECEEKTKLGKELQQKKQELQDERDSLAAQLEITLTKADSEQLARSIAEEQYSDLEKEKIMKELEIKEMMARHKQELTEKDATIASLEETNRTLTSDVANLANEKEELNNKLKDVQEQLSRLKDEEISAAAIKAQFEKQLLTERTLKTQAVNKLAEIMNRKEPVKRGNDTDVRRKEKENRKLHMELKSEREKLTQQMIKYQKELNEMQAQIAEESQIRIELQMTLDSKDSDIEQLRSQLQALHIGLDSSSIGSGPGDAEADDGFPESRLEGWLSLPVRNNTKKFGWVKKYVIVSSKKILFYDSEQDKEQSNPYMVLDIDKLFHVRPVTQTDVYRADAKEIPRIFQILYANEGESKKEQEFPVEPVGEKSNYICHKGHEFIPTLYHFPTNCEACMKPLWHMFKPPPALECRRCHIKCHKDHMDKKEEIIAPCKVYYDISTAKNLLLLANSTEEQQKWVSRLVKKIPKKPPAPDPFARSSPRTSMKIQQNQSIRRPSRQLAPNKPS
# Method: In a final reaction volume of 25 μl ROCK-II (h) (5-10 mU) is incubated with 50 mM Tris pH 7.5, 0.1 mM EGTA, 30 μM […], 10 mM MgAcetate and [γ-^33P-ATP] (specific activity approx. 500 cpm/pmol, concentration as required). The reaction is initiated by the addition of the MgATP mix. After incubation for 40 minutes at room temperature, the reaction is stopped by the addition of 5 μl of a 3% phosphoric acid solution. 10 μl of the reaction is then spotted onto a P30 filtermat and washed three times for 5 minutes in 75 mM phosphoric acid and once in methanol prior to drying and scintillation counting.
# P70S6 kinase (T412E) = target: T7, P70S6 kinase (T412E) (Homo sapiens, UniProt P23443, T412E); assay: p70S6K radiometric assay; format: biochemical; conditions: approximately 15 μM ATP
# T7 construct: purchased Upstate 14-486
# T7 sequence (P23443 1-421 T412E limits assumed): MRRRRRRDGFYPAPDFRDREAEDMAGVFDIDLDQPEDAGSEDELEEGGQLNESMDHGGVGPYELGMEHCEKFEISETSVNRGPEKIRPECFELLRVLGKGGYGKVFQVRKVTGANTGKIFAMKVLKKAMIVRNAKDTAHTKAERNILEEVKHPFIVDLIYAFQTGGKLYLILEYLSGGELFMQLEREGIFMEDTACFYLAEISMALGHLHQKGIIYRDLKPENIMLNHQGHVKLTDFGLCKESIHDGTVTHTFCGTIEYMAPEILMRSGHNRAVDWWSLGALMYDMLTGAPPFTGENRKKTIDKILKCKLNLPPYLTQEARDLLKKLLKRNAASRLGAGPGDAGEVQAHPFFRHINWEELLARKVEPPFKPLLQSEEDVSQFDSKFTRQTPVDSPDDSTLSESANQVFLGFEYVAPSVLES
# Method: P70S6 enzyme is bought from Upstate and used at 2 nM in the assay.
# The substrate S6 cocktail ([…]) is used at […] (Km has not been determined). In the phosphoryl transfer reaction, the ^33P-γ phosphate from ATP is transferred to the serine residue. The reaction mixture is transferred to a phosphocellulose filter plate where the peptide binds and the unused ATP is washed away. After washing, scintillant is added and the incorporated activity measured by scintillation counting.
# S6 kinase substrate cocktail from Upstate (#20-122)
# Assay Buffer 10 mM MOPS pH 7.0
# • 0.1 mg/ml BSA • 0.001% Brij-35 • 0.5% glycerol • 0.2 mM EDTA • 10 mM MgCl2 • 0.01% β-mercaptoethanol • Made as a 10× stock, stored at […] in 2 ml aliquots • 15 μM ATP
# Compounds—prepare a dilution curve in DMSO in a polypropylene 96 well plate to 40× final assay concentration (final DMSO 2.5%).
# • 5 μl compound • 10 μl substrate mix • 10 μl enzyme mix
# Final ATP concentration is approximately 15 μM. KM for ATP calculated to 47 uM radiometrically. Controls are “no compound” (DMSO only) and “no enzyme” (use 10 μl of the enzyme mix prior to adding enzyme). Cover with a plate seal (TopSeal A—Packard) or plastic lid from filter plate (moderate radiation barrier). Mix by gentle shaking. Incubate at room temperature for 50 minutes. Stop the reaction by adding 20 μl of 2% orthophosphoric acid. […]
# hERG K+ ion channel = hERG K+ ion channel (Homo sapiens, UniProt Q12809); assay: hERG activity
# PKB, sequence (P31751 whole entry, the tested form may be a part): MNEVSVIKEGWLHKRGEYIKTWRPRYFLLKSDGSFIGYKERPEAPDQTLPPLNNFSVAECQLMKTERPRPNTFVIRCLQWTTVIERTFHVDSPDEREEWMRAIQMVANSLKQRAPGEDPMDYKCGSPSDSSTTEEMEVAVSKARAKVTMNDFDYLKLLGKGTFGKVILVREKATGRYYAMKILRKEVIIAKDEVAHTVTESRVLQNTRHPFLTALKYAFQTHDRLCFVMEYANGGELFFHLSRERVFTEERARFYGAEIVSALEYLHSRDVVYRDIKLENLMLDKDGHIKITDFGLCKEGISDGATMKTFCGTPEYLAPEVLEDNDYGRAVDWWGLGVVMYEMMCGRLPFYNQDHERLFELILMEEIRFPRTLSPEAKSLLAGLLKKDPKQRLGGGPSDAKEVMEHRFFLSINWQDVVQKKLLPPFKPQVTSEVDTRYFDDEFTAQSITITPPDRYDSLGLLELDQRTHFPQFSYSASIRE
compound,measurement,setting,value
"NCC(O)(c1ccc(Cl)cc1)c1ccc(I)cc1 (racemic) [compound of the formula (12), 2-amino-1-(4-chloro-phenyl)-1-[4-iodo-phenyl]-ethanol]",activity against the kinase PKB,PKB,have activity against the kinase PKB
"CNC[C@@H](c1ccc(Cl)cc1)c1ccc(-c2cn[nH]c2)cc1 (single isomer, unassigned) [Isomer A]",fold more active against PKB than its antipode,[1],10 fold
"NC[C@@H](c1ccc(Cl)cc1)c1ccc(-c2cn[nH]c2)cc1 (single isomer, unassigned) [Isomer C]",fold more active against PKB than its antipode,[1],about 10 fold
same,activity in mechanistic cellular ELISA assay,[2],essentially equipotent
"NC[C@H](c1ccc(Cl)cc1)c1ccc(-c2cn[nH]c2)cc1 (single isomer, unassigned) [Isomer D]",activity in mechanistic cellular ELISA assay,[2],essentially equipotent
C[C@@H](N)[C@H]1CC[C@H](C(=O)Nc2ccncc2)CC1 [Example Y-27632],effective doses for the use of this compound,ROCK,approximately 30 uM
"NC[C@](O)(c1ccc(Cl)cc1)c1ccc(-c2cn[nH]c2)cc1 [R-enantiomer, (R)-2-amino-1-(4-chloro-phenyl)-1-[4-(1H-pyrazol-4-yl)-phenyl]-ethanol]",pIC50,"PKA catalytic domain; isolated enzyme, read-out: IC50 against PKA",6.60
same,pIC50,"[2]; Homo sapiens, U-87 MG, U87MG cells, 1 hour with inhibitor",< 4.30
same,activity in mechanistic cellular ELISA assay,[2],no measurable activity
"NC[C@@](O)(c1ccc(Cl)cc1)c1ccc(-c2cn[nH]c2)cc1 [compound of formula (I), (S)-2-amino-1-(4-chloro-phenyl)-1-[4-(1H-pyrazol-4-yl)-phenyl]-ethanol]",inhibition at 0.03 µM,PKA catalytic domain; at a concentration of 0.03 μM,44%
same,pIC50,CYP450 1A2,< 5.00
same,pIC50,CYP450 2C9,< 5.00
same,pIC50,CYP450 2C19,< 5.00
same,pIC50,CYP450 2D6,< 5.00
same,activity in mechanistic cellular ELISA assay,[2],good activity
same,pIC50,ROCK-II (h),> 8.00
same,pIC50,P70S6 kinase (T412E),7.92
same,hERG ion channel blocking activity,hERG K+ ion channel,negligible
